# Experimental data published in patent US8551984B2, “Aminopyrimidines as SYK inhibitors” (Merck Sharp & Dohme Corp., priority 2009, dated 2013).
# Target: recombinant human SYK (GST-hSYK fusion protein) (Homo sapiens, UniProt P43405)
# Test: biochemical
# Details: Syk IC50, HTRF, recombinant human GST-SYK
# From the text: Homogeneous Time-Resolved Fluorescence (HTRF) Assay for the Recombinant Human SYK Enzyme:
row,IC50 [µM],Compound
1,< 0.0005,"Cc1cc(Nc2nccc([C@@H](C)F)n2)cc(-c2cnc([C@@]3(O)CC[C@H](C(=O)O)C(C)(C)C3)s2)c1 [(1S,4R)-4-{5-[3-({4-[(1R)-1-fluoroethyl]pyrimidin-2-yl}amino)-5-methylphenyl]-1,3-thiazol-2-yl}-4-hydroxy-2,2-dimethylcyclohexanecarboxylic acid]"
2,< 0.0005,"Cc1cc(Nc2nccc([C@H](C)F)n2)cc(-c2cnc([C@@]3(O)CC[C@H](C(=O)O)C(C)(C)C3)s2)c1 [(1S,4R)-4-{5-[3-({4-[(1S)-1-fluoroethyl]pyrimidin-2-yl}amino)-5-methylphenyl]-1,3-thiazol-2-yl}-4-hydroxy-2,2-dimethylcyclohexanecarboxylic acid]"

# Same assay, conditions: hSYK Activity, table after Example 66
row,IC50 [µM],Compound
1,< 0.1,CC(=O)NC1(c2ncc(-c3cc(C)cc(Nc4nccc(C(F)(F)F)n4)c3)s2)COC1 [66-1]

# Same assay, conditions: rhSYK Activity (IC50), recombinant human GST-SYK 5 pM, ATP 25 μM, biotinylated substrate peptide 250 nM, HTRF, 10-dose titration
row,Compound,IC50 [µM]
1,"CC(=O)Nc1cc(Nc2nccc(OC3CCN(C(=O)OC(C)(C)C)CC3)n2)cc(-c2cnc(C3(O)CCC3)s2)c1 [109(1), tert-butyl 4-[2-({3-(acetylamino)-5-[2-(1-hydroxycyclobutyl)-1,3-thiazol-5-yl]phenylamino)pyrimidin-4-yl]oxy}piperidine-1-carboxylate]",0.1 to 1
2,"CC(=O)Nc1cc(Nc2nccc(OC3CCNCC3)n2)cc(-c2cnc(C3(O)CCC3)s2)c1 [109(2), N-(3-[2-(1-hydroxycyclobutyl)-1,3-thiazol-5-yl]-5-{[4-(piperidin-4-yloxy)pyrimidin-2-yl]-amino}phenyl)acetamide]",< 0.1
3,"Cc1cc(Nc2nccc(C3CC3)n2)cc(-c2cnc([C@]3(O)CC[C@@H](C(=O)O)CC3)s2)c1 [110(1), Cis-4-(5-(3-[(4-cyclopropylpyrimidin-2-yl)amino]-5-methylphenyl)-1,3-thiazol-2-yl)-4-hydroxycyclohexanecarboxylic acid]",< 0.1
4,"CCOP(=O)(OCC)[C@]1(O)CC[C@](O)(c2ncc(-c3cc(C)cc(Nc4nccc(C(F)(F)F)n4)c3)s2)CC1 [155(B), Diethyl{trans-1,4-dihydroxy-4-[5-(3-methyl-5-{[4-(trifluoromethyl)pyrimidin-2-yl]amino}phenyl)-1,3-thiazol-2-yl]cyclohexyl}phosphonate]",< 0.1

# The next lines start with the values.
row,IC50 [µM],Compound
1,< 0.1,"Cc1cc(Nc2nccc(C(F)(F)F)n2)cc(-c2cnc(C3(O)CC(C)(C)C(C(=O)O)CC3O)s2)c1 (stereo not drawn) [142(1), 1,4-Trans, 1,5-trans-4,5-dihydroxy-2,2-dimethyl-4-[5-(3-methyl-5-{[4-(trifluoromethyl)pyrimidin-2-yl]amino}phenyl)-1,3-thiazol-2-yl]cyclohexanecarboxylic acid]"
2,< 0.1,"CO/C=C/c1ncc(-c2cc(C)cc(Nc3nccc(C(F)(F)F)n3)c2)s1 [153(A), N-(3-{2-[(E)-2-Methoxyethenyl]-1,3-thiazol-5-yl}-5-methylphenyl)-4-(trifluoromethyl)pyrimidin-2-amine]"
3,< 0.1,"CO/C=C\c1ncc(-c2cc(C)cc(Nc3nccc(C(F)(F)F)n3)c2)s1 [153(B), N-(3-{2-[(Z)-2-Methoxyethenyl]-1,3-thiazol-5-yl}-5-methylphenyl)-4-(trifluoromethyl)pyrimidin-2-amine]"

# Same assay, conditions: rhSYK Activity, Table 10, Formula A
row,IC50 [µM],Compound
1,< 0.1,COc1ccnc(Nc2cc(C)cc(-c3cnc(C4(O)CCNC(=O)CC4)s3)c2)n1 (stereo not shown) [Example 10A-1]

# Same assay, conditions: rhSYK Activity, Table 65
row,IC50 [µM],Compound
1,< 0.1,Cc1cc(Nc2ncc(Cl)c(C(F)(F)F)n2)cc(-c2cnc(C3(NC(=O)NC(N)=O)CCNC(=O)CC3)s2)c1 (stereo not shown) [65-7]
2,< 0.1,COc1nc(Nc2cc(C)cc(-c3cnc(C4(NC(=O)NC(N)=O)CCC4)s3)c2)ncc1Cl [65-8]

# Same assay, conditions: rhSYK Activity, Table 74A
row,IC50 [µM],Compound
1,< 0.1,Cc1cc(Nc2nccc(C(F)(F)F)n2)cc(-c2cnc(C(C)(C)S(N)(=O)=O)s2)c1 [74A-1]
2,< 0.1,CC(C)(c1ncc(-c2cccc(Nc3nccc(C(F)(F)F)n3)c2)s1)S(C)(=O)=O [74A-2]
3,< 0.1,CC(C)(c1ncc(-c2cccc(Nc3nccc(C(F)(F)F)n3)c2)s1)S(N)(=O)=O [74A-3]
4,< 0.1,COc1ccnc(Nc2cc(C)cc(-c3cnc(C(C)(C)S(N)(=O)=O)s3)c2)n1 [74A-4]
5,< 0.1,Cc1cc(Nc2ncc(F)c(C)n2)cc(-c2cnc(C(C)(C)S(N)(=O)=O)s2)c1 [74A-5]
6,< 0.1,Cc1cc(Nc2ncc(F)c(C3CC3)n2)cc(-c2cnc(C(C)(C)S(N)(=O)=O)s2)c1 [74A-6]
7,< 0.1,COc1nc(Nc2cc(C)cc(-c3cnc(C(C)(C)S(N)(=O)=O)s3)c2)ncc1Cl [74A-7]
8,< 0.1,COc1nc(Nc2cc(C)cc(-c3cnc(C(C)(C)S(N)(=O)=O)s3)c2)ncc1F [74A-8]
9,< 0.1,Cc1cc(Nc2ncc(Cl)c(C)n2)cc(-c2cnc(C(C)(C)S(N)(=O)=O)s2)c1 [74A-9]
10,< 0.1,CC(C)(c1ncc(-c2cc(Nc3nccc(C(F)(F)F)n3)cc(C(F)F)c2)s1)S(N)(=O)=O [74A-11]
11,< 0.1,Cc1cc(Nc2nccc(C)n2)cc(-c2cnc(C(C)(C)S(N)(=O)=O)s2)c1 [74A-12]
12,< 0.1,Cc1cc(Nc2nccc(C3CC3)n2)cc(-c2cnc(C(C)(C)S(N)(=O)=O)s2)c1 [74A-13]
13,< 0.1,COC(=O)CNS(=O)(=O)C(C)(C)c1ncc(-c2cc(C)cc(Nc3nccc(C(F)(F)F)n3)c2)s1 [74A-14]
14,< 0.1,Cc1cc(Nc2nccc(C(F)(F)F)n2)cc(-c2cnc(C(C)(C)S(=O)(=O)NCC(=O)O)s2)c1 [74A-15]

# Same assay, conditions: rhSYK Activity, Table 116A
row,Compound,IC50 [µM]
1,Cc1cc(Nc2nc(C)cc(C)n2)cc(-c2cnc([C@]3(O)CC[C@@H](O)CC3)s2)c1 [116A-1],1 to 10
2,Cc1cc(Nc2ncc(F)c(C)n2)cc(-c2cnc([C@]3(O)CC[C@@H](C(=O)O)CC3)s2)c1 [116A-2],< 0.1
3,Cc1cc(Nc2ncc(Cl)c(C)n2)cc(-c2cnc([C@]3(O)CC[C@@H](C(=O)O)CC3)s2)c1 [116A-4],< 0.1
4,COc1nc(Nc2cc(C)cc(-c3cnc([C@]4(O)CC[C@@H](C(=O)O)CC4)s3)c2)ncc1F [116A-5],< 0.1
5,COc1nc(Nc2cc(C)cc(-c3cnc(C4(O)CCC(C(=O)O)CC4)s3)c2)ncc1Cl (stereo not shown) [116A-8],< 0.1
6,COc1nc(Nc2cc(C)cc(-c3cnc(C4(O)CCC(C(=O)OC(C)(C)C)CC4)s3)c2)ncc1F (stereo not shown) [116A-11],0.1 to 1
7,COc1nc(Nc2cc(C)cc(-c3cnc(C4(O)CCC(C(=O)OC(C)(C)C)CC4)s3)c2)ncc1Cl (stereo not shown) [116A-14],0.1 to 1
8,Cc1cc(Nc2nccc(-c3cccs3)n2)cc(-c2cnc(C3(O)CCC(C(=O)OC(C)(C)C)CC3)s2)c1 (stereo not shown) [116A-15],0.1 to 1
9,Cc1cc(Nc2nccc(OC(C)C)n2)cc(-c2cnc(C3(O)CCC(C(=O)O)C(C)C3)s2)c1 (stereo not shown) [116A-21],< 0.1
10,COC(=O)C1CCC(O)(c2ncc(-c3cc(C)cc(Nc4ncc(F)cn4)c3)s2)CC1(C)C (stereo not shown) [116A-22],0.1 to 1
11,Cc1cc(Nc2ncc(F)c(O)n2)cc(-c2cnc(C3(O)CCC(C(=O)O)C(C)(C)C3)s2)c1 (stereo not shown) [116A-23],0.1 to 1
12,COC(=O)C1CCC(O)(c2ncc(-c3cc(C)cc(Nc4ncc(F)c(C)n4)c3)s2)CC1(C)C (stereo not shown) [116A-25],< 0.1
13,Cc1cc(Nc2ncc(Cl)c(C)n2)cc(-c2cnc([C@@]3(O)CC[C@H](C(=O)O)C(C)(C)C3)s2)c1 [116A-27],< 0.1
14,COc1nc(Nc2cc(C)cc(-c3cnc(C4(O)CCC(C(=O)O)C(C)(C)C4)s3)c2)ncc1F (stereo not shown) [116A-28],< 0.1
15,Cc1cc(Nc2nccc(C3CCC3)n2)cc(-c2cnc([C@@]3(O)CC[C@H](C(=O)O)C(C)(C)C3)s2)c1 [116A-31],< 0.1
16,Cc1cc(Nc2nccc(OC(C)C)n2)cc(-c2cnc([C@@]3(O)CC[C@H](C(=O)O)C(C)(C)C3)s2)c1 [116A-33],< 0.1
17,COC(=O)C1CCC(O)(c2ncc(-c3cc(C)cc(Nc4ncc(Cl)c(C)n4)c3)s2)CC1(C)C (stereo not shown) [116A-34],0.1 to 1
18,COC(=O)C1CCC(O)(c2ncc(-c3cc(C)cc(Nc4ncc(F)c(OC)n4)c3)s2)CC1(C)C (stereo not shown) [116A-35],0.1 to 1
19,COc1nc(Nc2cc(C)cc(-c3cnc(C4(O)CCC(C(=O)O)C(C)(C)C4)s3)c2)ncc1Cl (stereo not shown) [116A-36],< 0.1
20,COC(=O)C1CCC(O)(c2ncc(-c3cc(C)cc(Nc4ncc(Cl)c(OC)n4)c3)s2)CC1(C)C (stereo not shown) [116A-38],0.1 to 1

# The remaining lines, values ahead:
row,IC50 [µM],Compound
1,< 0.1,Cc1cc(Nc2nccc(C(C)C)n2)cc(-c2cnc([C@]3(O)CC[C@@H](C(=O)O)CC3)s2)c1 [116A-3]
2,< 0.1,Cc1cc(Nc2nccc(C(C)(C)C)n2)cc(-c2cnc([C@]3(O)CC[C@@H](C(=O)O)CC3)s2)c1 [116A-6]
3,< 0.1,Cc1cc(Nc2nccc(OC(C)C)n2)cc(-c2cnc(C3(O)CCC(C(=O)O)CC3)s2)c1 (stereo not shown) [116A-7]
4,< 0.1,Cc1cc(Nc2nccc(C(C)F)n2)cc(-c2cnc(C3(O)CCC(C(=O)OC(C)(C)C)CC3)s2)c1 (stereo not shown) [116A-10]
5,0.1 to 1,Cc1cc(Nc2nccc(C(C)(C)C)n2)cc(-c2cnc(C3(O)CCC(C(=O)OC(C)(C)C)CC3)s2)c1 (stereo not shown) [116A-12]
6,< 0.1,Cc1cc(Nc2nccc(C(F)(F)C(F)(F)F)n2)cc(-c2cnc(C3(O)CCC(C(=O)O)CC3)s2)c1 (stereo not shown) [116A-13]
7,< 0.1,Cc1cc(Nc2nccc(C(F)F)n2)cc(-c2cnc(C3(O)CCC(C(=O)O)C(C)C3)s2)c1 (stereo not shown) [116A-18]
8,< 0.1,Cc1cc(Nc2nccc(C(C)(C)C)n2)cc(-c2cnc(C3(O)CCC(C(=O)O)C(C)C3)s2)c1 (stereo not shown) [116A-20]
9,< 0.1,Cc1cc(Nc2nccc(C(=O)O)n2)cc(-c2cnc([C@@]3(O)CC[C@H](C(=O)O)C(C)(C)C3)s2)c1 [116A-24]
10,< 0.1,Cc1cc(Nc2nccc(C(F)F)n2)cc(-c2cnc([C@@]3(O)CC[C@H](C(=O)O)C(C)(C)C3)s2)c1 [116A-30]
11,< 0.1,Cc1cc(Nc2nccc(C(C)(C)C)n2)cc(-c2cnc(C3(O)CCC(C(=O)O)C(C)(C)C3)s2)c1 (stereo not shown) [116A-32]
12,< 0.1,Cc1cc(Nc2nccc([C@@H](C)F)n2)cc(-c2cnc([C@@]3(O)CC[C@H](C(=O)O)C(C)(C)C3)s2)c1 [116A-39]
13,< 0.1,Cc1cc(Nc2nccc([C@H](C)F)n2)cc(-c2cnc([C@@]3(O)CC[C@H](C(=O)O)C(C)(C)C3)s2)c1 [116A-40]

# Same assay, conditions: rhSYK Activity, table after Example 69
row,IC50 [µM],Compound
1,0.1 to 1,Cc1cc(Nc2nccc(C(=O)N3CCOCC3)n2)cc(-c2cnc(C(C)(O)C(F)(F)F)s2)c1 (stereo not shown) [69-1]
